From US20080261895A1 (Wyeth, priority 2006, published 2008)
Values joined by “and” are separate entries in the source; they are usually repeats but may differ in a detail not shown here. Equal entries are not always repeated. Marks after values point to notes of the source that are not given here.

Legend:
[1] = Urinary excretion and metabolite profile by radiochromatography, dogs; format: in vivo, beagle dogs; settings: single oral 30 mg/kg
Method: For each dog, urine and feces were collected separately, with urine collected on dry ice and feces collected at room temperature. Collections were from 0-8 and 8-24 hours for urine and 0-24 hours for feces. Urine and fecal samples were shipped on dry ice to Wyeth Research, Biotransformation Division (Collegeville, Pa.) for analysis. Fecal samples were homogenized in approximately five volumes (v/w) of water. Aliquots of approximately 0.2 grams of the homogenate were placed into combusto-cones, weighed and allowed to air dry. These samples were then oxidized and radioactivity content determined. The remaining urine samples and fecal homogenates were stored at −70° C. until metabolite analysis. Blood samples and fecal homogenates were oxidized in a Model 307 Tri-Carb sample oxidizer, using Carbosorb® E (6 mL) as trapping agent and PermaFluor® E^+ (10 mL) as scintillant. The background reading (average of control blood or fecal samples) was subtracted from each sample reading. Aliquots of urine and plasma were analyzed directly following the addition of 10 mL of Ultima Gold™ scintillation fluid.
Urine samples collected between 8 and 24 hours post-dose were analyzed for metabolite profiles. Aliquots of urine were centrifuged at 14000 rpm in an Eppendorf Model 5415C centrifuge for 10 minutes. The supernatant was transferred to a fresh tube and analyzed for radioactivity content and by HPLC for metabolite profiling. Selected samples were also analyzed by LC/MS to characterize the radioactive peaks.
(§1) Chromatographic analyses were performed with a Waters Alliance model 2690 HPLC system (Waters Corp., Milford, Mass.). It was equipped with a built-in autosampler and was in-line with a model 2487 tunable UV detector, set to monitor 225 nm, and a FloOne β Model 515 radioactivity flow detector (Perkin Elmer) with a 250 μL LQTR flow cell. The flow rate of Ultima Flow M scintillation fluid was 3 mL/min, providing a mixing ratio of scintillation cocktail to mobile phase of 3:1. Separation of the metabolite peaks was accomplished on a Phenomenex Luna C18(2) column, 250×4.6 mm, 5 micron (Phenomenex, Torrance, Calif.), using a linear gradient of two mobile phases, A and B. Mobile phase A was 10 mM ammonium acetate, pH 5.5, and mobile phase B was acetonitrile. The flow rate was 1 mL/min.

[2] = Fecal excretion and metabolite profile by radiochromatography, rats; format: in vivo, Sprague Dawley rats; settings: for % of the radioactive dose excreted in feces: rats
Method: Urine and feces were collected separately on dry ice from three animals per sex. Collections were from 0-8 and 8-24 hours for male rats and 0-8 hours for female rats. Fecal samples were homogenized in approximately five volumes (v/w) of water. Aliquots of approximately 0.4 grams of the homogenate were placed into combusto-cones, weighed and allowed to air dry. These samples were then oxidized. The remaining urine samples and fecal homogenates were stored at −70° C. until metabolite analysis.
Fecal homogenates collected from male rats between 8 and 24 hours post-dose were analyzed for metabolite profiles. Aliquots of approximately 1 gram of fecal homogenate were centrifuged at 3500 rpm and 4° C. in a Sorvall Super 21 centrifuge for 10 minutes. The supernatant was transferred to a clean tube. The residue was re-suspended with 1 mL of water:acetonitrile (1:1, v:v) and centrifuged as described above. The resulting supernatant was combined with the original supernatant and the residue re-suspended with 1 mL of acetonitrile. The suspension was centrifuged as described above, and the supernatants were combined and analyzed for radioactivity. The supernatants were then concentrated under a stream of nitrogen in a Turbo Vap to remove the acetonitrile. An aliquot of the aqueous residue was analyzed by HPLC for profiling. Selected samples were also analyzed by LC/MS to characterize the radioactive peaks.
as §1, with “β Model 525 radioactivity flow” for “β Model 515 radioactivity flow”, “fluid was 1 mL/min, providing” for “fluid was 3 mL/min, providing”, “phase of 5:1. Separation of” for “phase of 3:1. Separation of”, “C18(2) column, 150×2.0 mm, 5” for “C18(2) column, 250×4.6 mm, 5”, “acetate, pH 6.0, and mobile” for “acetate, pH 5.5, and mobile”, “rate was 0.2 mL/min.” for “rate was 1 mL/min.”

[3] = Stability of [14C]DVS in control rat urine; format: in vitro ADME; settings: 37° C.
Method: (§2) The stability of [^14C]DVS in rat urine was determined. [^14C]DVS (0.13 mg/mL, final concentration) was added to control rat urine and incubated in a shaking water bath set to 37° C. Aliquots (0.5 mL) were removed at 0, 1, 4, 8 and 24 hours. Samples were extracted as described above and radiopurity assayed by HPLC analysis.

[4] = Stability of [14C]DVS in control rat plasma; format: in vitro ADME; settings: 37° C.
Method: as §2, with “plasma” for “urine”, “(0.01” for “(0.13”

[5] = includes 0-8 and 8-24 hour time points, 30 mg/kg

Radioactivity as % of Dose in urine, Mean ± S.D. [1, 5]: 74.8 ± 13.0^b % | Radioactivity as % of Dose in urine, individual dogs [1, 5]: 85.4% and 63.0% and 86.6% and 64.0% | Radioactivity as % of Dose in urine, Mean ± S.D. ([1]; includes 0-8 and 8-24 hour time points, listed as [^14C]DVS, 30 mg/kg): 75% | Compounds Detected by Radiochromatography in urine, percent of total peaks, Mean ± S.D. ([1]; urine 8-24 hours post-dose): 5.8 ± 1.6% | Compounds Detected by Radiochromatography in urine, percent of total peaks, individual dogs ([1]; urine 8-24 hours post-dose, mean of 2 analyses, 30 mg/kg): 7.9% and 5.7% and 5.4% and 4.0% | Radioactivity as % of Dose in feces, Mean ± S.D. ([2]; male rats, feces 8-24 hours post-dose, single oral 20 mg/kg): 9.6 ± 1.1% | Compounds Detected by Radiochromatography in feces, percent of total peaks, individual rats ([2]; male rats, feces 8-24 hours post-dose, single oral 20 mg/kg, 20 mg/kg): 19.6% and 20.8% and 22.0% | Radioactivity as % of Dose in feces, individual rats ([2]; male rats, feces 8-24 hours post-dose, single oral 20 mg/kg, listed as [^14C]DVS, 20 mg/kg): 10.8% and 9.5% and 8.5^b % | % of the radioactive dose excreted in feces ([2]; 0-8 hour fecal samples): Less than 0.1% | % of the radioactive dose excreted in feces ([2]; within 24 hours of dosing): approximately 10% | radiopurity of [14C]DVS in rat urine ([3]; all time points up to 24 hours): greater than 99.5% | Stability of [14C]DVS in control rat urine ([3]; up to 24 hours): stable | radiopurity of [14C]DVS in rat plasma ([4]; all time points up to 24 hours): greater than 98.9% | Stability of [14C]DVS in control rat plasma ([4]; up to 24 hours): stable
Compound: CN(C)CC(c1ccc(O)cc1)C1(O)CCCCC1.O=C(O)CCC(=O)O (centres unmarked) [DVS, O-desmethylvenlafaxine succinate]
